Assay results reported in patent publication US20260166012A1 (MEDINNO PHARMACEUTICAL TECHNOLOGY (ZHUHAI) CO., LTD., priority 2023, published 2026).

How the values were obtained:
[1] = biological target: JAK2 (Homo sapiens, UniProt O60674); test: ADP-Glo kinase inhibition assay, JAK2
Source text: (§1) A drug screening system based on kinases JAK1, JAK2, JAK3, and TYK2 was used to detect the inhibitory ability of small molecule compounds on kinase activity. A kinase undergoes an enzymatic reaction with its substrates IRS1, IGF1Rtide, and Poly (4:1 Glu, Tyr), consuming ATP to produce ADP, wherein the ADP-Glo reagent and luminescence method were used to detect the amount of the product to reflect the activity of the kinase.
(§2) For TYK2 inhibition activity testing, the starting concentration was 10 μM with 1:4 serial dilution. Test compounds were used at a starting concentration of 0.5 μM with 1:4 serial dilution.
(§3) Transfer 4 μL of ADP-Glo reagent to the 384-well plate, which was centrifuged at 1000 rpm for 1 minute, and incubated at 25° C. for 40 minutes.
(§4) Transfer 8 μL of the test solution to the 384-well plate, which was centrifuged at 1000 rpm for 1 minute, and incubated at 25° C. for 40 minutes.
(§5) Read luminescence signals using a multimode microplate reader.
(§6) [formula] • Negative Control: DMSO • Positive Control: Tofacitinib
(§7) The following nonlinear regression equation was used to determine the compound's IC50(half-maximal inhibitory concentration). Data analysis was performed using GraphPad Prism 7.0 software.
(§8) [formula] • X: Logarithm of compound concentration; and Y: Inhibition rate (% Inhibition)

[2] = biological target: T1, TYK2 (Homo sapiens, UniProt P29597); test: ADP-Glo kinase inhibition assay, TYK2
T1 sequence (P29597 897-1187 limits assumed): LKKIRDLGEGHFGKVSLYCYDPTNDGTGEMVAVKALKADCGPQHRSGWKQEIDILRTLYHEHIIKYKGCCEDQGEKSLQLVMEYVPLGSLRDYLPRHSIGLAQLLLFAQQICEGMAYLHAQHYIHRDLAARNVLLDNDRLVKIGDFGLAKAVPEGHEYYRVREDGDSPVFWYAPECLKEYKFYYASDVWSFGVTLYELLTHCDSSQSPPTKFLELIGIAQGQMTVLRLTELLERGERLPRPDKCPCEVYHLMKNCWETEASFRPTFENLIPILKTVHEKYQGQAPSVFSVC
Source text: as §1, §2, §3, §4, §5, §6, §7, §8

[3] = biological target: JAK3 (Homo sapiens, UniProt P52333); test: ADP-Glo kinase inhibition assay, JAK3
Sequence of JAK3 (P52333 795-1124 limits assumed): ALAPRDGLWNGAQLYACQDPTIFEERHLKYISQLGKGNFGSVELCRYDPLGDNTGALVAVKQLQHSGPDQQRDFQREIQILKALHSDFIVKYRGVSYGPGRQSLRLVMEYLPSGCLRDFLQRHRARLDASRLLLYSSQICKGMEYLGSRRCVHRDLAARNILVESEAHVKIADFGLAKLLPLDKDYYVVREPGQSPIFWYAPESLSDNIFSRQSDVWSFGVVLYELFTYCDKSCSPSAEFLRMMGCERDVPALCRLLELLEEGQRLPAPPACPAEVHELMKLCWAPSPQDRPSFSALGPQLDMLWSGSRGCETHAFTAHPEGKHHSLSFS
Source text: as §1, §2, §3, §4, §5, §6, §7, §8

[4] = biological target: JAK1 (Homo sapiens, UniProt P23458); test: ADP-Glo kinase inhibition assay, JAK1
Sequence of JAK1 (P23458 850-1154 limits assumed): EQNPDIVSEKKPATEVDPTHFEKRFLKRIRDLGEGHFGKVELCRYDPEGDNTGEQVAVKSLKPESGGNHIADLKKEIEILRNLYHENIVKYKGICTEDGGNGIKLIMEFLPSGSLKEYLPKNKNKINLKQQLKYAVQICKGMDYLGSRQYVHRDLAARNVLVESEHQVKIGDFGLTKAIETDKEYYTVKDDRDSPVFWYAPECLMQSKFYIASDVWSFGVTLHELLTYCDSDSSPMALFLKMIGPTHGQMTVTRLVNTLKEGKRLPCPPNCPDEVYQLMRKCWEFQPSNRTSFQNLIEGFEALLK
Source text: as §1, §2, §3, §4, §5, §6, §7, §8

[5] = tested on: itching caused by allergic dermatitis; conditions: dogs, cited from earlier work

Sequence of JAK2 (O60674 826-1132 limits assumed): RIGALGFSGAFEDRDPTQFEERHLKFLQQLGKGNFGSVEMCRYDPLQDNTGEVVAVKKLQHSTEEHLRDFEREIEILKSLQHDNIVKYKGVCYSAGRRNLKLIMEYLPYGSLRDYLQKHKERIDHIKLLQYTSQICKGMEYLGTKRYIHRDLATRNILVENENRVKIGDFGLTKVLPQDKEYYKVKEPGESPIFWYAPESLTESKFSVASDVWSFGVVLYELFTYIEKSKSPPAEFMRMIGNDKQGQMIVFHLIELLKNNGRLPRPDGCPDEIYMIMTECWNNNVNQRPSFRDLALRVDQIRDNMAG

Compound: [2H]C([2H])([2H])c1cc(O)c(F)cc1-c1ccc2c(-c3nc4c([nH]3)CN(C(=O)N3CCOCC3)C4)n[nH]c2c1 [Compound 10]
- IC50 [1]: 0.0097 nM
- IC50 [2]: 0.37 nM
- IC50 [3]: 0.3 nM
- IC50 [4]: 0.092 nM

Compound: [2H]C([2H])([2H])c1cc(O)c(F)cc1-c1ccc2c(-c3nc4c([nH]3)CN(C(=O)NCC(C)O)C4)n[nH]c2c1 (stereo not shown) [Compound 5, 2-(6-(5-Fluoro-4-hydroxy-2-(methyl-d3)phenyl)-1H-indazol-3-yl)-N-(2-hydroxypropyl)-4,6-dihydro-pyrrolo[3,4-d]imidazole-5(1H)-carboxamide]
- IC50 [1]: 0.01 nM
- IC50 [2]: 1.6 nM
- IC50 [3]: 0.3 nM
- IC50 [4]: 0.2 nM

Compound: [2H]C([2H])([2H])C([2H])([2H])c1cc(O)c(F)cc1-c1ccc2c(-c3nc4c([nH]3)CN(C(=O)N3CC[C@H](O)C3)C4)n[nH]c2c1 [Compound 3, (S)-(2-(6-(2-(Ethyl-d5)-5-fluoro-4-hydroxyphenyl)-1H-indazol-3-yl)-4,6-dihydropyrrolo[3,4-d]imidazol-5(1H)-yl) (3-hydroxypyrrolidin-1-yl) ketone methanesulfonate]
- IC50 [1]: 0.015 nM
- IC50 [2]: 0.022 nM
- IC50 [3]: 0.044 nM
- IC50 [4]: 0.0072 nM

Compound: [2H]C([2H])([2H])c1cc(O)c(F)cc1-c1ccc2c(-c3nc4c([nH]3)CN(C(=O)C3CC3)C4)n[nH]c2c1 [Compound 2, Cyclopropyl (2-(6-(5-fluoro-4-hydroxy-2-(methyl-d3)phenyl)-1H-indazol-3-yl)-4,6-dihydropyrrolo[3,4-d]imidazol-5(1H)-yl) ketone]
- IC50 [1]: 0.017 nM
- IC50 [2]: 1.2 nM
- IC50 [3]: 0.28 nM
- IC50 [4]: 0.19 nM

Compound: [2H]C([2H])([2H])c1cc(O)c(F)cc1-c1ccc2c(-c3nc4c([nH]3)CN(C(=O)N(C)C)C4)n[nH]c2c1 [Compound 9, 2-(6-(5-Fluoro-4-hydroxy-2-(methyl-d3)phenyl)-1H-indazol-3-yl)-N,N-dimethyl-4,6-dihydropyrrolo[3,4-d]imidazole-5(1H)-carboxamide]
- IC50 [1]: 0.008 nM
- IC50 [2]: 0.43 nM
- IC50 [3]: 0.32 nM
- IC50 [4]: 0.071 nM

Compound: [2H]C([2H])([2H])c1cc(O)c(F)cc1-c1ccc2c(-c3nc4c([nH]3)CN(C(=O)OC)C4)n[nH]c2c1 [Compound 18]
- IC50 [1]: 0.61 nM

Compound: [2H]C([2H])([2H])C([2H])([2H])c1cc(O)c(F)cc1-c1ccc2c(-c3nc4c([nH]3)CN(C(=O)N3CC[C@@H](O)C3)C4)n[nH]c2c1 [Compound 35]
- IC50 [1]: 0.0088 nM
- IC50 [2]: 0.085 nM
- IC50 [3]: 0.095 nM
- IC50 [4]: 0.0075 nM

Compound: [2H]C([2H])([2H])c1cc(O)c(F)cc1-c1ccc2c(-c3nc4c([nH]3)CN(C(=O)N3CC[C@@H](O)C3)C4)n[nH]c2c1 [Compound 8, (R)-(2-(6-(5-Fluoro-4-hydroxy-2-(methyl-d3)phenyl)-1H-indazol-3-yl)-4,6-dihydropyrrolo[3,4-d]imidazole-5(1H)-yl)(3-hydroxypyrrolidin-1-yl)ketone]
- IC50 [1]: 0.004 nM
- IC50 [2]: 0.19 nM
- IC50 [3]: 0.16 nM
- IC50 [4]: 0.045 nM

Compound: [2H]C([2H])([2H])c1cc(O)c(F)cc1-c1ccc2c(-c3nc4c([nH]3)CN(C(=O)NCCCO)C4)n[nH]c2c1 [Compound 7, 2-(6-(5-Fluoro-4-hydroxy-2-(methyl-d3)phenyl)-1H-indazol-3-yl)-N-(3-hydroxypropyl)-4,6-dihydropyrrolo[3,4-d]imidazole-5(1H)-carboxamide]
- IC50 [1]: 0.014 nM
- IC50 [2]: 0.53 nM
- IC50 [3]: 0.25 nM
- IC50 [4]: 0.07 nM

Compound: [2H]C([2H])([2H])c1cc(O)c(F)cc1-c1ccc2c(-c3nc4c([nH]3)CN(C(=O)NC[C@H](C)O)C4)n[nH]c2c1 [Compound 4, (S)-2-(6-(5-Fluoro-4-hydroxy-2-(methyl-d3)phenyl)-1H-indazol-3-yl)-N-(2-hydroxypropyl)-4,6-dihydropyrrolo[3,4-d]imidazole-5(1H)-carboxamide]
- IC50 [1]: 0.015 nM
- IC50 [2]: 1 nM
- IC50 [3]: 0.26 nM
- IC50 [4]: 0.1 nM

Compound: [2H]C([2H])([2H])c1cc(O)c(F)cc1-c1ccc2c(-c3nc4c([nH]3)CN(C(=O)N3CCC(O)CC3)C4)n[nH]c2c1 [Compound 19]
- IC50 [1]: 0.005 nM
- IC50 [2]: 0.3 nM
- IC50 [3]: 0.18 nM
- IC50 [4]: 0.032 nM

Compound: CNS(=O)(=O)C[C@H]1CC[C@H](N(C)c2ncnc3[nH]ccc23)CC1 [Olatinib]
- experimental animals that alleviated the itching response by more than 50% ([5]; on the 7th day): more than 70%
- time to relieve itching ([5]; oral 0.4-0.6 mg/kg twice a day): ≤ 24 h

Compound: [2H]C([2H])([2H])c1cc(O)c(F)cc1-c1ccc2c(-c3nc4c([nH]3)CN(C)C4)n[nH]c2c1 [Compound 12, 2-Fluoro-5-(methyl-d3)-4-(3-(5-methyl-1,4,5,6-tetrahydropyrrolo[3,4-d]imidazol-2-yl)-1H-indazol-6-yl)phenol]
- IC50 [4]: 1.8 nM

Compound: [2H]C([2H])([2H])c1cc(O)c(F)cc1-c1ccc2c(-c3nc4c([nH]3)CN(CC(C)O)C4)n[nH]c2c1 (stereo in doubt) [Compound 28]
- IC50 [1]: 0.05 nM
- IC50 [2]: 6.4 nM
- IC50 [3]: 1 nM
- IC50 [4]: 0.43 nM

Compound: [2H]C([2H])([2H])c1cc(O)c(F)cc1-c1ccc2c(-c3nc4c([nH]3)CN(C(=O)NC[C@@H](C)O)C4)n[nH]c2c1 [Compound 1, (R)-2-(6-(5-Fluoro-4-hydroxy-2-(methyl-d3)phenyl)-1H-indazol-3-yl)-N-(2-hydroxypropyl)-4,6-dihydropyrrolo[3,4-d]imidazole-5(1H)-carboxamide]
- IC50 [1]: 0.013 nM
- IC50 [2]: 0.8 nM
- IC50 [3]: 0.2 nM
- IC50 [4]: 0.096 nM

Compound: [2H]C([2H])([2H])c1cc(O)c(F)cc1-c1ccc2c(-c3nc4c([nH]3)CN(C(=O)NC)C4)n[nH]c2c1 [Compound 13]
- IC50 [1]: 0.012 nM
- IC50 [2]: 0.43 nM
- IC50 [3]: 0.22 nM
- IC50 [4]: 0.077 nM

Compound: [2H]C([2H])([2H])c1cc(O)c(F)cc1-c1ccc2c(-c3nc4c([nH]3)CN(C(=O)N3CC[C@H](O)C3)C4)n[nH]c2c1 [Compound 6, (S)-(2-(6-(5-Fluoro-4-hydroxy-2-(methyl-d3)phenyl)-1H-indazol-3-yl)-4,6-dihydropyrrolo[3,4-d]imidazole-5(1H)-yl)(3-hydroxypyrrolidin-1-yl)ketone]
- IC50 [1]: 0.013 nM
- IC50 [2]: 0.32 nM
- IC50 [3]: 0.19 nM
- IC50 [4]: 0.086 nM

Compound: [2H]C([2H])([2H])C([2H])([2H])c1cc(O)c(F)cc1-c1ccc2c(-c3nc4c([nH]3)CN(C(=O)N(C)C)C4)n[nH]c2c1 [Compound 32]
- IC50 [1]: 0.032 nM
- IC50 [2]: 0.3 nM
- IC50 [3]: 0.2 nM
- IC50 [4]: 0.025 nM
